pEC50: −log10 of the molar value. Where a name gives a salt, the structure may show the parent alone.
How the values were obtained:
F508del V470 CFTR = F508del V470 CFTR (Homo sapiens, UniProt P13569, DEL508-508); assay: FRT Ion Flux Assay of F508del CFTR Potentiation; format: cell-based; details: FRT cells expressing F508del V470 CFTR and halide-sensitive YFP, forskolin 20 uM, 30 min
Protocol: FRT Ion Flux Assay of F508del CFTR Potentiation
Fischer rat thyroid (FRT) cell lines stably expressing recombinant F508del V470 CFTR and halide-sensitive yellow fluorescent protein (Pedemonte et al., J. Clin. Invest. 115(9) 2564-71 (2005)) were seeded at 25,000 cells/well in 50 uL/well of culture medium into black-walled, clear bottom tissue-culture-treated 384-well plates (Corning, cat. no. 3712). After one day, the cells were pre-incubated at 27° C./5% CO2 for 16-24 hours. The cells were then washed with dPBS and treated with forskolin (20 uM) and test compound for 30 min by addition of 20 uL of compound dilution buffer (dPBS containing forskolin and test compound). Plates were loaded into FLIPR384 fluorescence imaging plate reader (Molecular Devices). After an initial fluorescence reading, iodide buffer (25 uL) (composition (in mM): 137 NaI, 1.5 K2PO4, 8.1 NaH2PO4, 2.7 KCl, 0.5 MgCl2, 1 CaCl2) was added and a second fluorescence reading was made after approximately 21 seconds. Data treatment involved division of the second fluorescence reading by the initial fluorescence reading, then scaling of the resulting normalized endpoint fluorescence with respect to the responses for DMSO (0%) and a positive control potentiator (100%).

CFTR = CFTR (Homo sapiens, UniProt P13569); assay: Ussing Chamber Electrophysiology Assay of CFTR Potentiation in CF Bronchial Epithelial Cells; format: cell-based; details: primary CF hBE cells, short-circuit current, scaled to DMSO (0%) and positive control potentiator (100%)
Excerpt: Ussing Chamber Electrophysiology Assay of CFTR Potentiation in CF Bronchial Epithelial Cells
Primary cystic fibrosis human bronchial epithelial (CF hBE) cells were expanded and cultured according to published methods (Neuberger et al., Ch. 4 of Cystic Fibrosis, Methods in Molecular Biology vol. 741, pp. 39-54 (2011)). Well-differentiated cells (>30 days at air/liquid interface) on Snapwell filters (Corning Costar, cat. no. 3801) were mounted in Ussing chambers (Physiologic Instruments, Inc., San Diego, Calif.). F508del/F508del cultures were assayed at 27° C. and G551D/F508del cells were assayed at 35° C. HEPES buffered physiological saline (composition (in mM): 137 NaCl, 4 KCl, 1 MgCl2, 1.8 CaCl2, 10 HEPES Na) was used in both apical and basolateral chambers. Chambers were bubbled with air to promote mixing and the voltage was clamped to zero. Amiloride (30 uM), forskolin (10 uM), test compound (4 increasing concentrations), and CFTRinh-172 (20 uM) were added sequentially with 20-25 minutes between additions. Short-circuit currents were acquired and analyzed using LabScribe2. Test compound responses were scaled relative to responses for DMSO (0%) and the maximal response of a positive control potentiator (100%).

Chain of F508del V470 CFTR (P13569 with tags, fused parts or gaps DEL508-508): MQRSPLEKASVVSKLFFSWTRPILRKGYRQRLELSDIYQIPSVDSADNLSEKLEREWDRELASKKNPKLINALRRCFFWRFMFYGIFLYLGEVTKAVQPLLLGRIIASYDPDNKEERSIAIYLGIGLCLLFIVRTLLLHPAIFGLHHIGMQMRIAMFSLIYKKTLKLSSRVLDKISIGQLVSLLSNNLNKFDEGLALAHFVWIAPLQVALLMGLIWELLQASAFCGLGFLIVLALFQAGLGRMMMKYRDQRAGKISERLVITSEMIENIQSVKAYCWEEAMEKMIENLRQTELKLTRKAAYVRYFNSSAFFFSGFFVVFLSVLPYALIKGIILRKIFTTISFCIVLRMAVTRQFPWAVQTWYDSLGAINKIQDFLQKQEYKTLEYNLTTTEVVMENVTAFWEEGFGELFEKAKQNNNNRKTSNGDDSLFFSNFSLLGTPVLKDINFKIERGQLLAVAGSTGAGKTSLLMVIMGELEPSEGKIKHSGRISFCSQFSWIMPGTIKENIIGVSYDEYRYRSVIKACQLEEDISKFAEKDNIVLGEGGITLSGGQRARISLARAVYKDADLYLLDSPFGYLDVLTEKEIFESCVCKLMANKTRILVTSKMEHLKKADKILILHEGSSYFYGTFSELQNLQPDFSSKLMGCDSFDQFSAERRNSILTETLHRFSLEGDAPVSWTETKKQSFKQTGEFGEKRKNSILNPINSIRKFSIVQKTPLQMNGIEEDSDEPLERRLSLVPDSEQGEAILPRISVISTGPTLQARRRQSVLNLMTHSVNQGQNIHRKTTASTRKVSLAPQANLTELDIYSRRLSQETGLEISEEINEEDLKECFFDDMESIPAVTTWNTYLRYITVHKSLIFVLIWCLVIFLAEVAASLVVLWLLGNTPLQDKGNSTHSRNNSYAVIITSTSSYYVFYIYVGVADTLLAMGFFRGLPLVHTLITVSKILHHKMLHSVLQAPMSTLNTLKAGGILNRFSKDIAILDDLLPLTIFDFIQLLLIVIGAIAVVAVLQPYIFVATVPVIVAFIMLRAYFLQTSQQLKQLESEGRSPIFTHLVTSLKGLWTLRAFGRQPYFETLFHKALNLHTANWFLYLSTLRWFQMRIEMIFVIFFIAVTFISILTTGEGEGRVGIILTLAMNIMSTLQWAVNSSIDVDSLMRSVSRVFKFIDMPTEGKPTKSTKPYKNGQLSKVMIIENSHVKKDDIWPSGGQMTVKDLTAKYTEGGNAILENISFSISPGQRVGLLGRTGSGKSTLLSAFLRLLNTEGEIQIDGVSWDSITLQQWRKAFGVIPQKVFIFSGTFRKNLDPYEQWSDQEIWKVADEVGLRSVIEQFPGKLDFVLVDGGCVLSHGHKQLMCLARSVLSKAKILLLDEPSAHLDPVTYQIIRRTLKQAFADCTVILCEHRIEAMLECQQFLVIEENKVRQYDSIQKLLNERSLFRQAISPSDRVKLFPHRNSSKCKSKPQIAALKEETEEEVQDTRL

Structure (SMILES) | pEC50 (F508del V470 CFTR) | pEC50 (CFTR)
CCC(c1cn(-c2ccccc2F)nn1)n1nc(-c2cnc(C(F)(F)F)nc2)c2c(N)ncnc21 (single isomer, unassigned) [Example 89, 1-{1-[1-(2-fluorophenyl)-1H-1,2,3-triazol-4-yl]propyl}-3-[2-(trifluoromethyl)pyrimidin-5-yl]-1H-pyrazolo[3,4-d]pyrimidin-4-amine] | 6.66 | 6.72
CC(c1cnn(-c2ccccc2F)c1)c1c(C#N)c(-c2cnc(C(F)F)nc2)c2c(N)ncnn12 (single isomer, unassigned) [Example 97, 4-amino-5-[2-(difluoromethyl)pyrimidin-5-yl]-7-{1-[1-(2-fluorophenyl)-1H-pyrazol-4-yl]ethyl}pyrrolo[2,1-f][1,2,4]triazine-6-carbonitrile] |  | 8.41
CC(c1cnn(-c2ccc(F)cc2F)c1)c1c(C#N)c(-c2cnc(C(F)(F)F)nc2)c2c(N)ncnn12 (single isomer, unassigned) [Example 20, 4-amino-7-{1-[1-(2,4-difluorophenyl)-1H-pyrazol-4-yl]ethyl}-5-[2-(trifluoromethyl)pyrimidin-5-yl]pyrrolo[2,1-f][1,2,4]triazine-6-carbonitrile] | 7.52 | 8.05
CC(O)(c1cn(-c2ccccc2F)nn1)c1cc(-c2cnc(C(F)(F)F)nc2)c2c(N)ncnn12 (single isomer, unassigned) [Example 68, 1-{4-amino-5-[2-(trifluoromethyl)pyrimidin-5-yl]pyrrolo[2,1-f][1,2,4]triazin-7-yl}-1-[1-(2-fluorophenyl)-1H-1,2,3-triazol-4-yl]ethanol] | 5.64 | 
CC(c1cn(-c2ccc(F)cc2F)nn1)c1cc(-c2cnc(C(F)(F)F)nc2)c2c(N)ncnn12 (single isomer, unassigned) [Example 56, 7-{1-[1-(2,4-difluorophenyl)-1H-1,2,3-triazol-4-yl]ethyl}-5-[2-(trifluoromethyl)pyrimidin-5-yl]pyrrolo[2,1-f][1,2,4]triazin-4-amine] | 8.06 | 8.13
CCC(c1cn(-c2ccc(F)cc2F)nn1)c1cc(-c2cnc(C(F)(F)F)nc2)c2c(N)ncnn12 (single isomer, unassigned) [Example 59, 7-{1-[1-(2,4-difluorophenyl)-1H-1,2,3-triazol-4-yl]propyl}-5-[2-(trifluoromethyl)pyrimidin-5-yl]pyrrolo[2,1-f][1,2,4]triazin-4-amine] | 6.60 | 6.94
Nc1ncnn2c(Cc3cn(-c4ccccc4F)nn3)nc(-c3ccc(Cl)cc3)c12 [Example 93, 5-(4-Chlorophenyl)-7-{[1-(2-fluorophenyl)-1H-1,2,3-triazol-4-yl]methyl}imidazo[5,1-f][1,2,4]triazin-4-amine trifluoroacetate] | 7.26 | 6.94
CCC(c1cn(-c2ccccc2F)nn1)c1c(C#N)c(-c2cnc(C(F)(F)F)nc2)c2c(N)ncnn12 (centres unmarked) [Example 25, 4-amino-7-{1-[1-(2-fluorophenyl)-1H-1,2,3-triazol-4-yl]propyl}-5-[2-(trifluoromethyl)pyrimidin-5-yl]pyrrolo[2,1-f][1,2,4]triazine-6-carbonitrile] |  | 8.10
CCC(c1cn(-c2ccc(F)cc2F)nn1)c1c(C#N)c(-c2cnc(C(F)(F)F)nc2)c2c(N)ncnn12 (single isomer, unassigned) [Example 7, 4-amino-7-{1-[1-(2,4-difluorophenyl)-1H-1,2,3-triazol-4-yl]propyl}-5-[2-(trifluoromethyl)pyrimidin-5-yl]pyrrolo[2,1-f][1,2,4]triazine-6-carbonitrile] | 7.35 | 7.48
CC(c1cc(-c2ccccc2F)no1)c1c(C#N)c(-c2cnc(C(F)(F)F)nc2)c2c(N)ncnn12 (single isomer, unassigned) [Example 19, 4-amino-7-{1-[3-(2-fluorophenyl)-1,2-oxazol-5-yl]ethyl}-5-[2-(trifluoromethyl)pyrimidin-5-yl]pyrrolo[2,1-f][1,2,4]triazine-6-carbonitrile] | 7.86 | 8.30
CC(c1cnn(-c2ccccc2F)c1)c1c(C#N)c(-c2cnc(C(F)(F)F)nc2)c2c(N)ncnn12 (single isomer, unassigned) [Example 12, 4-amino-7-{1-[1-(2-fluorophenyl)-1H-pyrazol-4-yl]ethyl}-5-[2-(trifluoromethyl)pyrimidin-5-yl]pyrrolo[2,1-f][1,2,4]triazine-6-carbonitrile] | 7.90 | 8.40
N#Cc1c(-c2cnc(C(F)(F)F)nc2)c2c(N)ncnn2c1Cc1cnn(-c2ccccc2F)c1 [Example 30, 4-amino-7-{[1-(2-fluorophenyl)-1H-pyrazol-4-yl]methyl}-5-[2-(trifluoromethyl)pyrimidin-5-yl]pyrrolo[2,1-f][1,2,4]triazine-6-carbonitrile] | 9.24 | 9.07
CCC(c1cn(-c2ccccc2F)nn1)c1cc(-c2cncnc2OC)c2c(N)ncnn12 (single isomer, unassigned) [Example 65, 7-{1-[1-(2-fluorophenyl)-1H-1,2,3-triazol-4-yl]propyl}-5-(4-methoxypyrimidin-5-yl)pyrrolo[2,1-f][1,2,4]triazin-4-amine] | 7.86 | 7.98
CCC(c1cn(-c2ccccc2F)nn1)c1cc(-c2cnc(C(F)(F)F)nc2)c2c(N)ncnn12 (single isomer, unassigned) [Example 57, 7-{1-[1-(2-fluorophenyl)-1H-1,2,3-triazol-4-yl]propyl}-5-[2-(trifluoromethyl)pyrimidin-5-yl]pyrrolo[2,1-f][1,2,4]triazin-4-amine] | 8.73 | 8.70
CCC(c1cn(-c2ccc(F)cc2F)nn1)c1cc(-c2cnc(C(F)(F)F)nc2)c2c(N)ncnn12 (single isomer, unassigned) [Example 60, 7-{1-[1-(2,4-difluorophenyl)-1H-1,2,3-triazol-4-yl]propyl}-5-[2-(trifluoromethyl)pyrimidin-5-yl]pyrrolo[2,1-f][1,2,4]triazin-4-amine] | 8.47 | 8.70
CCC(c1cnn(C(C)C)c1)c1c(C#N)c(-c2cnc(C(F)(F)F)nc2)c2c(N)ncnn12 (single isomer, unassigned) [Example 11, 4-amino-7-{1-[1-(propan-2-yl)-1H-pyrazol-4-yl]propyl}-5-[2-(trifluoromethyl)pyrimidin-5-yl]pyrrolo[2,1-f][1,2,4]triazine-6-carbonitrile] | 8.38 | 8.16
CCC(c1cn(-c2ccccc2)nn1)n1nc(-c2cnc(C(F)(F)F)nc2)c2c(N)ncnc21 (single isomer, unassigned) [Example 95, 1-[1-(1-phenyl-1H-1,2,3-triazol-4-yl)propyl]-3-[2-(trifluoromethyl)pyrimidin-5-yl]-1H-pyrazolo[3,4-d]pyrimidin-4-amine] | 6.46 | 6.73
CCC(c1cn(-c2cc(F)ccc2F)nn1)c1cc(-c2cnc(C(F)(F)F)nc2)c2c(N)ncnn12 (single isomer, unassigned) [Example 61, 7-{1-[1-(2,5-difluorophenyl)-1H-1,2,3-triazol-4-yl]propyl}-5-[2-(trifluoromethyl)pyrimidin-5-yl]pyrrolo[2,1-f][1,2,4]triazin-4-amine] | 6.60 | 7.13
CCC(c1cn(-c2ccccc2)nn1)n1nc(-c2cnc(C(F)(F)F)nc2)c2c(N)ncnc21 (single isomer, unassigned) [Example 94, 1-[1-(1-phenyl-1H-1,2,3-triazol-4-yl)propyl]-3-[2-(trifluoromethyl)pyrimidin-5-yl]-1H-pyrazolo[3,4-d]pyrimidin-4-amine] | 7.30 | 7.13
CCC(c1cn(-c2ccc(F)cc2F)nn1)c1c(C#N)c(-c2cnc(C(F)(F)F)nc2)c2c(N)ncnn12 (single isomer, unassigned) [Example 6, 4-amino-7-{1-[1-(2,4-difluorophenyl)-1H-1,2,3-triazol-4-yl]propyl}-5-[2-(trifluoromethyl)pyrimidin-5-yl]pyrrolo[2,1-f][1,2,4]triazine-6-carbonitrile] | 8.30 | 8.26
CC(c1cnn(-c2ccccc2F)c1)c1c(C#N)c(-c2cnc(C(F)F)nc2)c2c(N)ncnn12 (single isomer, unassigned) [Example 96, 4-amino-5-[2-(difluoromethyl)pyrimidin-5-yl]-7-{1-[1-(2-fluorophenyl)-1H-pyrazol-4-yl]ethyl}pyrrolo[2,1-f][1,2,4]triazine-6-carbonitrile] |  | 9.40

— US10131670B2, “Bicyclic heteroaryl derivatives as CFTR potentiators” (CYSTIC FIBROSIS FOUNDATION THERAPEUTICS, INC., priority 2016, dated 2018)
